Where a name gives a salt, the structure may show the parent alone.
T1: Bile salt export pump (Rattus norvegicus, UniProt O70127)
T1 sequence (O70127 whole entry): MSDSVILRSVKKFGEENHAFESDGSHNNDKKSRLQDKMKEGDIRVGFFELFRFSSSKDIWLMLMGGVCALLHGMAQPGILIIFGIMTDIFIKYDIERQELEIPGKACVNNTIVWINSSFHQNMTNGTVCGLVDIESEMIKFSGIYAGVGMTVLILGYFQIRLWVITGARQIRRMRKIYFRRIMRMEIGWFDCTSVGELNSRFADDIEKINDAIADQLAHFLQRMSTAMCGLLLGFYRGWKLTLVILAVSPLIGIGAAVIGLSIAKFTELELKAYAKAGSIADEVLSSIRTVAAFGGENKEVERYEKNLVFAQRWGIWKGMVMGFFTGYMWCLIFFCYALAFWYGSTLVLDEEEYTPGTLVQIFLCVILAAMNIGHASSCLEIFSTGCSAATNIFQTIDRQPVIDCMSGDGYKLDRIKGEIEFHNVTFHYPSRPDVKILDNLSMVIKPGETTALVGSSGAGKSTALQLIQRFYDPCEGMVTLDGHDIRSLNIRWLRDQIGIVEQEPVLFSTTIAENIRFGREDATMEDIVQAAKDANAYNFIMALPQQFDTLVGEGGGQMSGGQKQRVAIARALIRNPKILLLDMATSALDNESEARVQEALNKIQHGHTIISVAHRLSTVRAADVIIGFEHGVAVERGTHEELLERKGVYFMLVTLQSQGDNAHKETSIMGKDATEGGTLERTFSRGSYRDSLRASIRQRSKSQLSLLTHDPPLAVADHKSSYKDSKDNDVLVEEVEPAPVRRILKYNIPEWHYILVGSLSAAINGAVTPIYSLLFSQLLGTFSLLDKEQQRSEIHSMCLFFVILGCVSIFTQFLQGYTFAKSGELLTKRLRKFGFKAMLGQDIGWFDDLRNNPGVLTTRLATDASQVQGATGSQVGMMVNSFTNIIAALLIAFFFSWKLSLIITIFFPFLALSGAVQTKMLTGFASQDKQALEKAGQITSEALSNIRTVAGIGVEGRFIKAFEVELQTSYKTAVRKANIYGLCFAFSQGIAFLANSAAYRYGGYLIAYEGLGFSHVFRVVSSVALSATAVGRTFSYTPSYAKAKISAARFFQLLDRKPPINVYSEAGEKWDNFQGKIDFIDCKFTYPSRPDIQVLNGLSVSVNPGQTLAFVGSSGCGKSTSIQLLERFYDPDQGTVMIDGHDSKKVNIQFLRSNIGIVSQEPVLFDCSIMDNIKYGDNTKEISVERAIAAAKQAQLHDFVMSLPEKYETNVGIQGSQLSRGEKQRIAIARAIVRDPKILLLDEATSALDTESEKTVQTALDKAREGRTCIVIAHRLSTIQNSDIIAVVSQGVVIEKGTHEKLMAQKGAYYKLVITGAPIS


Key:
Bile salt export pump [1] = biological target: T1, Bile salt export pump; experiment: TP_TRANSPORTER: inhibition of Taurocholate uptake (Taurocholate: 1 uM) in membrane vesicles isolated from Bsep-expressing Sf9 cells; assay type: functional, cell membranes, Membrane vesicle
Bile salt export pump [2] = biological target: T1, Bile salt export pump; experiment: TP_TRANSPORTER: inhibition of Taurocholate uptake (Taurocholate: 1 uM) in canalicular membrane vesicles from SD rat; assay type: functional, cell membranes, Sprague-Dawley, Canalicular membrane vesicle
[3] = substrate: [H][C@]12CC[C@]3([H])[C@]([H])(CC[C@]4(C)C([C@H](C)CCC(=O)NCCS(=O)(=O)O)CC[C@@]34[H])[C@@]1(C)CC[C@@H](OS(=O)(=O)O)C2; experiment: TP_TRANSPORTER: uptake in membrane vesicles from Mrp2-expressing Sf9 cells; assay type: functional, cell membranes, Membrane vesicle
[4] = substrate: [H][C@]12CC[C@]3([H])[C@]([H])(CC[C@]4(C)C([C@H](C)CCC(=O)NCCS(=O)(=O)O)CC[C@@]34[H])[C@@]1(C)CC[C@@H](OS(=O)(=O)O)C2; experiment: (§1) TP_TRANSPORTER: uptake in canalicular membrane vesicles from SD rat; assay type: functional, cell membranes, Srague-Dawley, Liver, Canalicular membrane vesicle
[5] = substrate: C[C@H](CCC(=O)NCCS(=O)(=O)O)C1CC[C@H]2[C@@H]3[C@H](O)C[C@@H]4C[C@H](OS(=O)(=O)O)CC[C@]4(C)[C@H]3CC[C@]12C; experiment: as §1; assay type: functional, cell membranes, Srague-Dawley, Liver, Canalicular membrane vesicle

Molecule	IC50 (Bile salt export pump [1]) [µM]	IC50 (Bile salt export pump [2]) [nM]	Km [3] [µM]	Km [4] [µM]	Km [5] [µM]
C[C@H](CCC(=O)NCCS(=O)(=O)O)C1CC[C@H]2[C@@H]3CC[C@@H]4C[C@H](OS(=O)(=O)O)CC[C@]4(C)[C@H]3CC[C@]12C (some centres not stated)	61.9	1200	–	–	–
C[C@H](CCC(=O)NCCS(=O)(=O)O)C1CC[C@H]2[C@@H]3[C@H](O)C[C@@H]4C[C@H](OS(=O)(=O)O)CC[C@]4(C)[C@H]3CC[C@]12C (some centres not stated) [TAUROCHENODEOXYCHOLATE SULFATE]	67.9	4600	–	–	–
ATP-binding cassette sub-family C member 2 (Rattus norvegicus) (protein) MDKFCNSTFWDLSLLESPEADLPLCFEQTVLVWIPLGFLWLLAPWQLYSVYRSRTKRSSITKFYLAKQVFVVFLLILAAIDLSLALTEDTGQATVPPVRYTNPILYLCTWLLVLAVQHSRQWCVRKNSWFLSLFWILSVLCGVFQFQTLIRALLKDSKSNMAYSYLFFVSYGFQIVLLILTAFSGPSDSTQTPSVTASFLSSITFSWYDRTVLKGYKHPLTLEDVWDIDEGFKTRSVTSKFEAAMTKDLQKARQAFQRRLQKSQRKPEATLHGLNKKQSQSQDVLVLEEAKKKSEKTTKDYPKSWLIKSLFKTFHVVILKSFILKLIHDLLVFLNPQLLKLLIGFVKSSNSYVWFGYICAILMFAVTLIQSFCLQSYFQHCFVLGMCVRTTVMSSIYKKALTLSNLARKQYTIGETVNLMSVDSQKLMDATNYMQLVWSSVIQITLSIFFLWRELGPSILAGVGVMVLLIPVNGVLATKIRNIQVQNMKNKDKRLKIMNEILSGIKILKYFAWEPSFQEQVQGIRKKELKNLLRFGQLQSLLIFILQITPILVSVVTFSVYVLVDSANVLNAEKAFTSITLFNILRFPLSMLPMVTSSILQASVSVDRLERYLGGDDLDTSAIRRVSNFDKAVKFSEASFTWDPDLEATIQDVNLDIKPGQLVAVVGTVGSGKSSLVSAMLGEMENVHGHITIQGSTAYVPQQSWIQNGTIKDNILFGSEYNEKKYQQVLKACALLPDLEILPGGDMAEIGEKGINLSGGQKQRVSLARAAYQDADIYILDDPLSAVDAHVGKHIFNKVVGPNGLLAGKTRIFVTHGIHFLPQVDEIVVLGKGTILEKGSYRDLLDKKGVFARNWKTFMKHSGPEGEATVNNDSEAEDDDDGLIPTMEEIPEDAASLAMRRENSLRRTLSRSSRSSSRRGKSLKNSLKIKNVNVLKEKEKEVEGQKLIKKEFVETGKVKFSIYLKYLQAVGWWSILFIILFYGLNNVAFIGSNLWLSAWTSDSDNLNGTNNSSSHRDMRIGVFGALGLAQGICLLISTLWSIYACRNASKALHGQLLTNILRAPMRFFDTTPTGRIVNRFSGDISTVDDLLPQTLRSWMMCFFGIAGTLVMICMATPVFAIIIIPLSILYISVQVFYVATSRQLRRLDSVTKSPIYSHFSETVTGLPIIRAFEHQQRFLAWNEKQIDINQKCVFSWITSNRWLAIRLELVGNLVVFCSALLLVIYRKTLTGDVVGFVLSNALNITQTLNWLVRMTSEAETNIVAVERISEYINVENEAPWVTDKRPPADWPRHGEIQFNNYQVRYRPELDLVLKGITCNIKSGEKVGVVGRTGAGKSSLTNCLFRILESAGGQIIIDGIDVASIGLHDLRERLTIIPQDPILFSGSLRMNLDPFNKYSDEEVWRALELAHLRSFVSGLQLGLLSEVTEGGDNLSIGQRQLLCLGRAVLRKSKILVLDEATAAVDLETDSLIQTTIRKEFSQCTVITIAHRLHTIMDSDKIMVLDNGKIVEYGSPEELLSNRGSFYLMAKEAGIENVNHTEL	–	–	3.9	1.5	8.8
